The values below come from patent US20230201166A1, “METHODS FOR TREATING CANCER BY INHIBITING CARM1” (DANA-FARBER CANCER INSTITUTE, INC., priority 2020, published 2023).

One assay has as its system B16F10 melanomas. The assay can be described thus: Flow cytometry of tumor-infiltrating immune cells, B16F10 melanomas treated with CARM1 inhibitor. It is filed as in vivo, mouse. From the text:
FIG. 15A illustrates changes in tumor microenvironment induced by monotherapy or combination therapy with CARM1 inhibitor, showing treatment of mice with B16F10 melanomas with CARM1 inhibitor or vehicle control. Mice also received isotype control, CTLA-4 or PD-1 mAbs, as indicated (n=5 mice/group). Representative flow plots of CD8 T cells gated on live/singlets/CD45+/CD3+ cells from indicated groups are shown on left. Quantification of CD8 T cells is shown as percentage of CD3+ T cells (middle) or number per gram of tumor (right) for the indicated treatment groups.
FIG. 15B illustrates changes in tumor microenvironment induced by monotherapy or combination therapy with CARM1 inhibitor, showing number of intra-tumoral granzyme B+CD8+ T cells per gram of tumor for the indicated treatment groups (n=5 mice/group). Representative flow plots are shown on left.
FIG. 15C illustrates changes in tumor microenvironment induced by monotherapy or combination therapy with CARM1 inhibitor, showing number of intra-tumoral IL2+CD8+ T cells per gram of tumor for the indicated treatment groups (n=5 mice/group).
FIG. 15D illustrates changes in tumor microenvironment induced by monotherapy or combination therapy with CARM1 inhibitor, showing number of intra-tumoral IFNγ+CD8+ T cells per gram of tumor for the indicated treatment groups (n=5 mice/group). Representative flow plots are shown on left.
FIG. 15E illustrates changes in tumor microenvironment induced by monotherapy or combination therapy with CARM1 inhibitor, showing number of intra-tumoral perforin+CD8+ T cells per gram of tumor for the indicated treatment groups (n=5 mice/group).
FIG. 15F illustrates changes in tumor microenvironment induced by monotherapy or combination therapy with CARM1 inhibitor, showing analysis of intra-tumoral PD1+CD8+ T cells (quantified as percentage of CD8+ T cells) for the indicated treatment groups (n=5 mice/group). Representative flow plots (left) and quantification of PD-1 expression as percentage of CD8 T cells (middle) or MFI (right) are shown.
FIG. 16A illustrates changes in tumor microenvironment induced by monotherapy or combination therapy with CARM1 inhibitor, showing treatment of mice with B16F10 melanomas with CARM1 inhibitor or vehicle control. Mice also received isotype control, CTLA-4 or PD-1 mAbs, as indicated (n=5 mice/group). Quantification of CD4+ T cells (number per gram of tumor) for the indicated treatment groups.
FIG. 16B illustrates changes in tumor microenvironment induced by monotherapy or combination therapy with CARM1 inhibitor, showing quantification of IFNγ+ cells (as percentage of CD4+ T cells) for the indicated treatment groups.
FIG. 16C illustrates changes in tumor microenvironment induced by monotherapy or combination therapy with CARM1 inhibitor, showing quantification of FoxP3+ Treg cells (as percentage of CD4+ T cells) for the indicated treatment groups.
FIG. 16D illustrates changes in tumor microenvironment induced by monotherapy or combination therapy with CARM1 inhibitor, showing quantification of the CD8/FoxP3 Treg ratio for the indicated treatment groups.
FIG. 16E illustrates changes in tumor microenvironment induced by monotherapy or combination therapy with CARM1 inhibitor, showing number of intra-tumoral NK cells (left), dendritic cells (live, singlet, CD45+CD3−F4/80-CD11c+ MHCII^hi) (middle) and macrophages (live, singlet, CD45+CD3−F4/80+) (right) calculated per gram of tumor.
Inhibitor treatment was performed for 14 days because limited quantities of the compound were available.
Tumors were excised on day 18 following tumor cell inoculation and cut into small pieces using sterile scalpels in serum-free RPMI 1640 media (ThermoFisher #11875093). […]
(A flow cytometer gives signals particle by particle.)

The test system of assay [1] is malignant melanoma xenograft model. To be noted: oral dosing; cited from earlier work.
A further assay deals with RPMI-8226. As to conditions: immunodeficient mouse model; cited from earlier work.
Where [2] appears, read: all three CARM1 inhibitor treatment groups.
Setting [3] is: combined with PD-1 or CTLA-4 mAbs.

With `CNC[C@@H](O)COc1ccc(Cl)c(-c2nc(-c3c(C)noc3C)c(C)c(N3CC4(CCN(C(=O)OC)CC4)C3)n2)c1` (stereo in doubt) [EZM2302], in the assay with B16F10 melanomas (setting [2]), the “number of CD8 T cells (per gram of tumor) that expressed granzyme B, IL-2, IFNγ, and perforin” value is “striking increase”; the “tumor-infiltrating NK cells” value was “increased”. Besides, in the assay with B16F10 melanomas (any of the treatment groups), the macrophage numbers result is given as “no changes in macrophage numbers”. For the same compound, in the assay with B16F10 melanomas (setting [3]), the “CD8 T cell infiltration” value is “even higher”, the cDC1 cells result is on record as “increased” and the “tumor-infiltrating NK cells” value is recorded as “highest”. Further, the “PD-1 expression by CD8 T cells” value with B16F10 melanomas (compared to vehicle control group) is listed as “reduced”. Besides, the “CD8 T cell infiltration” value in the assay with B16F10 melanomas (monotherapy) is on record as “substantially increased”. Further, in the assay on B16F10 melanomas (mouse, in vivo), the “number of tumor-infiltrating CD4 T cells or FoxP3+ Tregs” value is listed as “did not change”. Further, in assay [1], the anti-tumor activity result is given as “anti-tumor activity” and the “in vivo CARM1 inhibition” value is listed as “dose-dependent in vivo CARM1 inhibition”. The “in vivo growth of RPMI-8226” value in the assay on RPMI-8226 is recorded as “moderately slow the in vivo growth”.
